Experimental data: ChEMBL document CHEMBL1157348, “The alkaloid conessine and analogues as potent histamine H3 receptor antagonists” (J Med Chem, 2008)

Legend:
[1] = Displacement of [3H]LY278584 from 5HT1 receptor in rat frontal cortex; type: tissue-based
[2] = Displacement of [3H]LY278584 from 5HT2 receptor in rat frontal cortex; type: tissue-based
[3] = Displacement of [3H]LY278584 from 5HT3 receptor in rat frontal cortex; type: tissue-based
[4] = biological target: Histamine H3 receptor (Rattus norvegicus) (UniProt Q9QYN8); experiment: Antagonist activity at rat full length histamine H3 receptor expressed in rat C6 cells assessed as inhibition of [35S]gammaGTP binding relative to control; type: cell-based
[5] = biological target: T1, Histamine H3 receptor (Homo sapiens, UniProt Q9Y5N1); experiment: Antagonist activity at human full length histamine H3 receptor expressed in HEK293 cells assessed as inhibition of (R)-alpha-methylhistamine-induced intracellular calcium release by FLIPR; type: functional, cell-based
[6] = biological target: Histamine H3 receptor (Rattus norvegicus) (UniProt Q9QYN8); experiment: Antagonist activity at rat full length histamine H3 receptor assessed as inhibition of (R)-alpha-methylhistamine-induced intracellular calcium release by FLIPR; type: functional, cell-based
[7] = biological target: T1, Histamine H3 receptor; conditions: HEK293
[8] = biological target: T1, Histamine H3 receptor; conditions: C6
[9] = biological target: Histamine H3 receptor (Cavia porcellus) (UniProt Q9JI35); conditions: Ileum
[10] = biological target: Histamine H3 receptor (Rattus norvegicus) (UniProt Q9QYN8); experiment: Antagonist activity at rat full length histamine H3 receptor expressed in HEK cells assessed as inhibition of forskolin-induced cAMP accumulation by SPA; conditions: HEK293
[11] = biological target: T1, Histamine H3 receptor; experiment: Displacement of [3H]NAMH from human full length histamine H3 receptor expressed in rat C6 cells; type: cell-based
[12] = biological target: Histamine H3 receptor (Rattus norvegicus, UniProt Q9QYN8); experiment: Displacement of [3H]NAMH from histamine H3 receptor in rat cortex; conditions: read-out: Ki
[13] = biological target: Histamine H3 receptor (Cavia porcellus, UniProt Q9JI35); experiment: Antagonist activity at histamine H3 receptor in guinea pig ileum assessed as inhibition of (R)-alpha-methylhistamine-induced response
[14] = Oral bioavailability in rat; type: ADME, organism-based; conditions: in vivo

Histamine H3 receptor (Rattus norvegicus), sequence (Q9QYN8 whole entry): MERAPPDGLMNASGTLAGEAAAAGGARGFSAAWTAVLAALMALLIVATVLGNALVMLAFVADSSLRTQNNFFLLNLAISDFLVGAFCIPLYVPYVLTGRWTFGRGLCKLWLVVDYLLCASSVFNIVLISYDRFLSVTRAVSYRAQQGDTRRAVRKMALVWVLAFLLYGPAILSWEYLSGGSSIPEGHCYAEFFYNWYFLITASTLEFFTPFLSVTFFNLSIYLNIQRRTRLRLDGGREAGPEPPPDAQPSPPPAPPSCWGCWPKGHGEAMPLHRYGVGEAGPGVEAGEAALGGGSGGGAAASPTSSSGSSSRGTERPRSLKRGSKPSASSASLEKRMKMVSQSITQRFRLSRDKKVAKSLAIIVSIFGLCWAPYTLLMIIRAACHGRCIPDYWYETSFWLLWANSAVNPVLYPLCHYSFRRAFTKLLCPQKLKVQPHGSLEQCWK
Histamine H3 receptor (Rattus norvegicus, UniProt Q9QYN8), sequence (Q9QYN8 whole entry): as above
T1 sequence (Q9Y5N1 whole entry): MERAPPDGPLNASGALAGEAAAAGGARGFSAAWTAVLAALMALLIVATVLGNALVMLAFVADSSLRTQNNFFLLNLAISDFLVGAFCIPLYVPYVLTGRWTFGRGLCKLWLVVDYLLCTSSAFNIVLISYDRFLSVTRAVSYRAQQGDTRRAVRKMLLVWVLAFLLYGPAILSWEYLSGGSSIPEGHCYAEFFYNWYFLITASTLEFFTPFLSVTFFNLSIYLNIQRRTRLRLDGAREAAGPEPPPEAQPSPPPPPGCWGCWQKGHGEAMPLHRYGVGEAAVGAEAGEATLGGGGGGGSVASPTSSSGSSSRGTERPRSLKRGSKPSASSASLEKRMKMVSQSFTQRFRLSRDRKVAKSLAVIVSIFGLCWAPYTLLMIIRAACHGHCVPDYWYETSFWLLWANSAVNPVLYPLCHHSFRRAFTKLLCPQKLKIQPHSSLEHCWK
Histamine H3 receptor (Cavia porcellus), sequence (Q9JI35 whole entry): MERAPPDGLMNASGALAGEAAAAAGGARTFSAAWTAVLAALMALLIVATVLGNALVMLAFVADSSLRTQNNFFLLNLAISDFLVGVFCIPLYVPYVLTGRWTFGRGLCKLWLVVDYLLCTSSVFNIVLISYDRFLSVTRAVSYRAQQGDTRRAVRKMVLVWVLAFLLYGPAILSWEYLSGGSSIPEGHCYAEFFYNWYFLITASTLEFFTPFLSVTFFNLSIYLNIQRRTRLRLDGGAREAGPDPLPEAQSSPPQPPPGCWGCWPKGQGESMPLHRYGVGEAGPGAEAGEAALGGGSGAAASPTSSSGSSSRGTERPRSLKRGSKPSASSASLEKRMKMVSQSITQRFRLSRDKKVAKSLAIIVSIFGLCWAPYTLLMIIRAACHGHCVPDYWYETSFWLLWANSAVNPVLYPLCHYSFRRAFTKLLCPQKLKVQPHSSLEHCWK
Histamine H3 receptor (Cavia porcellus, UniProt Q9JI35), sequence (Q9JI35 whole entry): as above

Compound: O=C(c1ccc(OCCCc2c[nH]cn2)cc1)C1CC1 [CIPROXIFAN]
- pKi [1]: 4.78
- pKi [2]: 4.73
- pKi [3]: 6.52
- pKb [4]: 8.78
- pKb [5]: 6.84
- pKb [6]: 9.42
- pKb [7]: 7.07
- pKb [8]: 6.59
- pKb [9]: 8.12
- pKb [10]: 9.2

Compound: CC(=O)N(C)[C@H]1CC[C@@]2(C)C(=CC[C@H]3[C@@H]4CC[C@@H]5[C@H](C)N(C)C[C@@]54CC[C@@H]32)C1
- Ki [11]: 110 nM
- Ki [12]: 257 nM

Compound: C[C@H]1[C@H]2CC[C@H]3[C@@H]4CC=C5C[C@@H](N(C)C(=O)c6ccccc6)CC[C@]5(C)[C@H]4CC[C@]23CN1C
- Ki [11]: 12.3 nM
- Ki [12]: 38 nM

Compound: COc1ccc(C/C(=N\O)C(=O)NCCc2c[nH]cn2)cc1Br [VERONGAMINE]
- IC50 [13]: 830 nM

Compound: CC(=O)N[C@@H](CC(C)C)C(=O)N(C)[C@H]1CC[C@@]2(C)C(=CC[C@H]3[C@@H]4CC[C@@H]5[C@H](C)N(C)C[C@@]54CC[C@@H]32)C1
- Ki [11]: 1.62 nM
- Ki [12]: 6.76 nM

Compound: C[C@H]1[C@H]2CC[C@H]3[C@@H]4CC=C5C[C@@H](N(C)S(=O)(=O)c6ccccc6)CC[C@]5(C)[C@H]4CC[C@]23CN1C
- Ki [11]: 7.76 nM
- Ki [12]: 61.7 nM

Compound: CC[C@H](C)[C@H](N)C(=O)N(C)[C@H]1CC[C@@]2(C)C(=CC[C@H]3[C@@H]4CC[C@@H]5[C@H](C)N(C)C[C@@]54CC[C@@H]32)C1
- Ki [11]: 0.22 nM
- Ki [12]: 0.49 nM

Compound: C[C@H]1[C@H]2CC[C@H]3[C@@H]4CC=C5C[C@@H](N(C)C(=O)c6ccc(C#N)cc6)CC[C@]5(C)[C@H]4CC[C@]23CN1C
- Ki [11]: 39.8 nM
- Ki [12]: 195 nM

Compound: C[C@H]1[C@H]2CC[C@H]3[C@@H]4CC=C5C[C@@H](N(C)S(=O)(=O)N(C)C)CC[C@]5(C)[C@H]4CC[C@]23CN1C
- Ki [11]: 30.9 nM
- Ki [12]: 240 nM

Compound: C[C@H]1[C@H]2CC[C@H]3[C@@H]4CC=C5C[C@@H](N(C)S(=O)(=O)c6ccc(C#N)cc6)CC[C@]5(C)[C@H]4CC[C@]23CN1C
- Ki [11]: 19 nM
- Ki [12]: 138 nM

Compound: C[C@H]1[C@H]2CC[C@H]3[C@@H]4CC=C5C[C@@H](N(C)C(=O)Cc6cccs6)CC[C@]5(C)[C@H]4CC[C@]23CN1C
- Ki [11]: 3.31 nM
- Ki [12]: 11.2 nM
- bioavailability [14]: 4.5%

Compound: CCS(=O)(=O)N(C)[C@H]1CC[C@@]2(C)C(=CC[C@H]3[C@@H]4CC[C@@H]5[C@H](C)N(C)C[C@@]54CC[C@@H]32)C1
- Ki [11]: 23.4 nM
- Ki [12]: 141 nM

Compound: C[C@H]1[C@H]2CC[C@H]3[C@@H]4CC=C5C[C@@H](N(C)c6ccc(C#N)cc6)CC[C@]5(C)[C@H]4CC[C@]23CN1C
- Ki [11]: 1.66 nM
- Ki [12]: 24 nM
